According to patent publication US5032384A, “Compositions and method for the treatment of disease” (Block Drug Company, Inc., priority 1989, dated 1991):

Biological target: cyclooxygenase cascade
Assay: Inhibition of PGE2 synthesis (assay of cyclooxygenase products, 14C arachidonate incorporation) in homogenate of inflamed human gingival tissue
Format: biochemical
Experimental: A large pool of inflamed human gingival tissue was obtained from patients with periodontitis who were undergoing routine periodontal surgery. The tissues were immediately stored in liquid nitrogen prior to use or were used fresh. The assay of cyclooxygenase products was performed as a modification of the assay of El Attar et al., J. Periodon. […] Pooled tissue was weighed and homogenized at 0°-4° C. with a Polytron® (Brinkman) homogenizer in a 0.2 M TRIS buffer, pH 8.0, at a final concentration of 20 mg/ml. After centrifugation for 10 minutes at 1200×g, the supernatant was divided into 3 ml aliquots for incubation in the presence or absence of a test compound.
Prostanoids were extracted as described by Powell, Methods in Eng., 86, 467 (1982) using a Sep-Pak-C18 cartridge from Waters Associates. The Sep-Pak was prepared by the sequential elution of 20 milliliters of ethanol and 20 milliliters of water. The sample was then adjusted to 15% ethanol, pH 3.0, with acetic acid and applied to the column. […]
These are readily separated and quantified using a 4.6×100 nm RP-18 Spheri-5u column from Brownle Labs. A Flow-One radioactivity monitor simultaneously measured radioactivity while monitoring elution at 192 nanometers.
The net incorporation of the 14C arachidonate was measured in the absence of the test substance in order to determine the maximum activity of the cyclooxygenase cascade.

IC50 value of alpha-tocopherol (inhibition of PGE2 synthesis) (change in presence of ketoprofen)	Compound	IC50 value of ketoprofen (inhibition of PGE2 synthesis) (change in presence of alpha-tocopherol)
lowered	Cc1c(C)c2c(c(C)c1O)CCC(C)(CCCC(C)CCCC(C)CCCC(C)C)O2 (stereo not drawn) [alpha-tocopherol]	–
–	CC(C(=O)O)c1cccc(C(=O)c2ccccc2)c1 (centres unmarked) [ketoprofen]	lowered
